The record followed here is the Biogen ADME set (Fang et al. 2023).

The conditions of the data set: for aqueous solubility: pH 6.8.

The structures appear in SMILES notation. Values after ≈ are worked out from the molar mass of the structure shown.

Molecule `CCc1nc(COc2ccccc2Br)no1` yielded an aqueous solubility of 21.9 µg/mL (≈ 77.5 µM).

As to `COCCNc1c(C)c(C)nc2cc(-c3nccn3C)nn12`, the MDR1-MDCK efflux ratio was 1.53; the intrinsic clearance, human liver microsomes is 21.1 mL/min/kg; the intrinsic clearance, rat liver microsomes was 79.6 mL/min/kg.

In turn, `CN(Cc1cccc(C#N)c1)C(=O)CC(C)(C)C` came in with an aqueous solubility of 29.9 µg/mL (≈ 123 µM).

In the case of `O=C1CCCN1c1ccc(CN2CCC(c3noc4cc(F)ccc34)CC2)cc1`, the MDR1-MDCK efflux ratio stood at 0.963; the intrinsic clearance, human liver microsomes came to 26.7 mL/min/kg; the intrinsic clearance, rat liver microsomes was found to be 109 mL/min/kg; the aqueous solubility came out at 58.6 µg/mL (≈ 149 µM).

Regarding `Cc1csc2nc3n(c(=O)c12)CCNCC3`, the MDR1-MDCK efflux ratio was determined as 0.686; the intrinsic clearance, human liver microsomes was 7.83 mL/min/kg; the intrinsic clearance, rat liver microsomes came out at 228 mL/min/kg.

`COc1cc(C#N)ccc1Oc1nc2ccccc2o1`: the aqueous solubility is 8.7 µg/mL (≈ 32.7 µM).

Consider `O=C(C1CCC1)N1CCC[C@H]1Cn1nnc(-c2cccs2)n1`, for which the MDR1-MDCK efflux ratio came out at 0.712 and the intrinsic clearance, rat liver microsomes is 4750 mL/min/kg.

Turning to `Cc1nnc2ncc(-c3cccc4ccnn34)cn12`, the MDR1-MDCK efflux ratio is 0.468; the intrinsic clearance, human liver microsomes was 9.33 mL/min/kg; the intrinsic clearance, rat liver microsomes amounted to 39.7 mL/min/kg.

Regarding `CON(C)C(=O)Cc1c(C)[nH]c2ccccc12`, the MDR1-MDCK efflux ratio turned out to be 0.627; the intrinsic clearance, human liver microsomes was ≤ 4.74 mL/min/kg; the intrinsic clearance, rat liver microsomes came out at 70.4 mL/min/kg; the aqueous solubility came out at 53 µg/mL (≈ 228 µM).

As for `N#Cc1cccnc1NCCc1cn2c(n1)CCCC2`, the MDR1-MDCK efflux ratio stood at 1.33; the intrinsic clearance, human liver microsomes is 11.5 mL/min/kg; the intrinsic clearance, rat liver microsomes worked out at 2440 mL/min/kg; the aqueous solubility was 52.4 µg/mL (≈ 196 µM).

As to `CCCn1cc(C(=O)N2CCC(c3n[nH]cc3C(=O)N(C)Cc3ccccc3)CC2)cn1`, the MDR1-MDCK efflux ratio was found to be 9.45; the intrinsic clearance, human liver microsomes was 129 mL/min/kg; the intrinsic clearance, rat liver microsomes amounted to 561 mL/min/kg; the aqueous solubility was found to be 45.3 µg/mL (≈ 104 µM).

For `O=C(NCCN1CCc2ccccc2C1=O)c1ccon1`, the MDR1-MDCK efflux ratio is 1.18; the intrinsic clearance, human liver microsomes was ≤ 4.74 mL/min/kg; the intrinsic clearance, rat liver microsomes came out at 56.3 mL/min/kg.

`NC(=O)c1sc2cc(F)ccc2c1Cl`: the aqueous solubility turned out to be 0.5 µg/mL (≈ 2.18 µM).

As for `C=CC(=O)Nc1cc(-n2c(=O)ccc3cnc4ccc(-c5ccc(NS(C)(=O)=O)cc5)cc4c32)ccc1C`, the MDR1-MDCK efflux ratio came out at 50.5 and the aqueous solubility was 0.3 µg/mL (≈ 0.572 µM).

As to `CCCN(Cc1ccccc1)C(=O)CC1(N)CCC1`, the MDR1-MDCK efflux ratio worked out at 11.9; the intrinsic clearance, human liver microsomes is ≤ 4.74 mL/min/kg; the intrinsic clearance, rat liver microsomes came out at 725 mL/min/kg; the aqueous solubility came to 56.4 µg/mL (≈ 217 µM).

Take `O=c1c2c(Cl)ccc(Cl)c2ncn1Cc1cc(O)ncn1`: the intrinsic clearance, human liver microsomes was ≤ 4.74 mL/min/kg and the intrinsic clearance, rat liver microsomes was ≤ 10.7 mL/min/kg.

On to `O=C(COc1ccc2oc3c(c2c1)CCCC3)N1CCOCC1`, for which the intrinsic clearance, human liver microsomes came out at 31 mL/min/kg; the intrinsic clearance, rat liver microsomes turned out to be 2980 mL/min/kg; the aqueous solubility was 43 µg/mL (≈ 136 µM).

Take `CN(C)C(=O)COC(=O)Cc1ccc(OC(=O)c2ccc(NC(=N)N)cc2)cc1`: the MDR1-MDCK efflux ratio amounted to 0.707; the intrinsic clearance, human liver microsomes came to 102 mL/min/kg; the intrinsic clearance, rat liver microsomes was determined as 936 mL/min/kg; the aqueous solubility was determined as 77.6 µg/mL (≈ 195 µM).

Regarding `c1ccc(Nc2nc(N3CCOCC3)nc(N3CCOCC3)n2)cc1`, the MDR1-MDCK efflux ratio turned out to be 0.502; the intrinsic clearance, human liver microsomes worked out at 22.8 mL/min/kg; the intrinsic clearance, rat liver microsomes came out at 48.3 mL/min/kg.

For the molecule `O=C(NCCNC(=O)c1cc(-c2ccccc2)nc2ccccc12)c1ccco1`, the MDR1-MDCK efflux ratio stood at 10; the intrinsic clearance, human liver microsomes amounted to 58.6 mL/min/kg; the intrinsic clearance, rat liver microsomes turned out to be 461 mL/min/kg; the aqueous solubility was 37.6 µg/mL (≈ 97.7 µM).

`C(=C\c1ccccc1)/CNCc1ccc2c(c1)OCO2`: the MDR1-MDCK efflux ratio was determined as 0.337; the intrinsic clearance, human liver microsomes amounted to 38.9 mL/min/kg; the intrinsic clearance, rat liver microsomes was 573 mL/min/kg; the aqueous solubility worked out at 40.1 µg/mL (≈ 150 µM).

On to `CC1(C)[C@H]2CC=C(CN3CCC4(CCC(=O)N4)CC3)[C@@H]1C2`, for which the MDR1-MDCK efflux ratio stood at 0.825; the intrinsic clearance, human liver microsomes was ≤ 4.74 mL/min/kg; the intrinsic clearance, rat liver microsomes is 196 mL/min/kg.

For the molecule `Cc1cc(Nc2ncccn2)cc(C2CCCN(CC(=O)Nc3ccc(F)cc3)C2)n1` (centres undefined), the MDR1-MDCK efflux ratio amounted to 8.32; the intrinsic clearance, human liver microsomes turned out to be 64.4 mL/min/kg; the intrinsic clearance, rat liver microsomes was 456 mL/min/kg.

`Cc1cc(C)cc(NC(=O)COC(=O)c2nn(C)c(=O)c3ccccc23)c1` yielded an aqueous solubility of 0.97 µg/mL (≈ 2.65 µM).

Regarding `C[C@@H](Cn1nc2c(cc1=O)CCCCC2)NC(=O)CCc1ccccc1`, the intrinsic clearance, human liver microsomes stood at 222 mL/min/kg and the intrinsic clearance, rat liver microsomes stood at 3560 mL/min/kg.

`Cc1nc2cc(NC(=O)Cc3c(C)nc4ccccc4c3C)ccc2o1`: the MDR1-MDCK efflux ratio was determined as 4.57; the intrinsic clearance, human liver microsomes stood at 8.56 mL/min/kg; the intrinsic clearance, rat liver microsomes amounted to 254 mL/min/kg; the aqueous solubility turned out to be 23.1 µg/mL (≈ 66.9 µM).

For the molecule `Cn1c(-c2ccccc2)cnc1NCc1ccccc1`, the MDR1-MDCK efflux ratio is 0.501; the intrinsic clearance, human liver microsomes came to 506 mL/min/kg; the intrinsic clearance, rat liver microsomes was found to be 3360 mL/min/kg; the aqueous solubility came to 27.7 µg/mL (≈ 105 µM).

Regarding `Cc1ccccc1-n1cc[nH]c(=O)c1=O`, the MDR1-MDCK efflux ratio turned out to be 1.26; the intrinsic clearance, human liver microsomes turned out to be 5.09 mL/min/kg; the intrinsic clearance, rat liver microsomes is ≤ 10.7 mL/min/kg; the aqueous solubility worked out at 58.4 µg/mL (≈ 289 µM).

As to `O=C(CN1CCCC(c2cncc(-c3cccc(Cl)c3)n2)C1)N1CCCC1` (centres undefined), the MDR1-MDCK efflux ratio stood at 1.73; the intrinsic clearance, human liver microsomes was determined as 86.6 mL/min/kg; the intrinsic clearance, rat liver microsomes came out at 1080 mL/min/kg; the aqueous solubility is 65.8 µg/mL (≈ 171 µM).

Turning to `COc1cccc(-c2ocnc2C(=O)Nc2ccc(-c3ccc(C)o3)cc2)c1`, the aqueous solubility worked out at 0.4 µg/mL (≈ 1.07 µM).

As for `CS(=O)(=O)Nc1ccccc1-c1ccncc1`, the MDR1-MDCK efflux ratio is 1.27; the intrinsic clearance, human liver microsomes is ≤ 4.74 mL/min/kg; the intrinsic clearance, rat liver microsomes came to 100 mL/min/kg.

Consider `N#Cc1cccc(CNCc2ccccn2)c1`, for which the MDR1-MDCK efflux ratio was 0.554; the intrinsic clearance, human liver microsomes was ≤ 4.74 mL/min/kg; the intrinsic clearance, rat liver microsomes was 30.3 mL/min/kg.

For `O=C(CN1CCC(n2c(=O)[nH]c3ccccc32)CC1)N1CCc2ccccc21`, the MDR1-MDCK efflux ratio was found to be 51; the intrinsic clearance, human liver microsomes was 10.4 mL/min/kg; the intrinsic clearance, rat liver microsomes stood at 393 mL/min/kg; the aqueous solubility turned out to be 21.9 µg/mL (≈ 58 µM).

For `CC(C)CC(=O)Nc1ccc(Cl)c(C#N)c1`, the aqueous solubility amounted to 24.1 µg/mL (≈ 102 µM).

`Cc1nc(C#N)c(C#N)n1Cc1csc(-c2cccs2)n1` displayed an intrinsic clearance, human liver microsomes of 88.8 mL/min/kg; an intrinsic clearance, rat liver microsomes of 1710 mL/min/kg; an aqueous solubility of 32.2 µg/mL (≈ 104 µM).

`CC1(COc2ccc3c(c2)ncn3-c2ccc3cccc(N4CCC(N)CC4)c3n2)COC1`: the intrinsic clearance, human liver microsomes is 57.1 mL/min/kg; the intrinsic clearance, rat liver microsomes is 196 mL/min/kg; the aqueous solubility was 32.8 µg/mL (≈ 74 µM).

Regarding `CC(C)(C)C(=O)N1CCC(CN2CCCC[C@@H]2CO)CC1`, the MDR1-MDCK efflux ratio worked out at 14.3; the intrinsic clearance, human liver microsomes was ≤ 4.74 mL/min/kg; the intrinsic clearance, rat liver microsomes stood at 29.4 mL/min/kg; the aqueous solubility was determined as 50.1 µg/mL (≈ 169 µM).

As to `COc1nc(C)nc(N(C)Cc2nccs2)c1C`, the MDR1-MDCK efflux ratio amounted to 0.467; the intrinsic clearance, human liver microsomes is 131 mL/min/kg; the intrinsic clearance, rat liver microsomes came to 508 mL/min/kg; the aqueous solubility is 29.8 µg/mL (≈ 113 µM).

Turning to `COc1ccc(N2N=C(C)/C(=C(\C)Nc3ccc(S(N)(=O)=O)cc3)C2=O)cc1`, the MDR1-MDCK efflux ratio was found to be 41.1; the intrinsic clearance, human liver microsomes came to 8.92 mL/min/kg; the intrinsic clearance, rat liver microsomes is 39.3 mL/min/kg; the aqueous solubility was determined as 20.9 µg/mL (≈ 52.1 µM).

For `N#Cc1ccc(CN2CC(n3cccn3)C2)cc1`, the MDR1-MDCK efflux ratio turned out to be 0.596; the intrinsic clearance, human liver microsomes was ≤ 4.74 mL/min/kg; the intrinsic clearance, rat liver microsomes was 20.7 mL/min/kg; the aqueous solubility stood at 36.5 µg/mL (≈ 153 µM).

Turning to `CNCc1cc(NC)nc(C2CCCN2C(=O)COc2ccccc2OC)n1` (centres undefined), the MDR1-MDCK efflux ratio was 1.2; the intrinsic clearance, human liver microsomes is ≤ 4.74 mL/min/kg; the intrinsic clearance, rat liver microsomes came out at 45.1 mL/min/kg.

`Cc1noc(C)c1N(C)CCn1cncn1`: the intrinsic clearance, human liver microsomes is ≤ 4.74 mL/min/kg and the intrinsic clearance, rat liver microsomes was 38.4 mL/min/kg.

Consider `CCc1ccc(CNc2nncs2)o1`, for which the MDR1-MDCK efflux ratio was found to be 0.666; the intrinsic clearance, human liver microsomes was 7.77 mL/min/kg; the intrinsic clearance, rat liver microsomes turned out to be 46.9 mL/min/kg.

In the case of `CCOC(=O)c1ccc(OCC(=O)c2c[nH]c3ccccc23)cc1`, the MDR1-MDCK efflux ratio was found to be 0.456 and the aqueous solubility amounted to 0.69 µg/mL (≈ 2.13 µM).

`Cc1nc2cc(C(=O)NC34CCCC3NCC4)ccc2c(=O)[nH]1` (centres undefined): the MDR1-MDCK efflux ratio worked out at 0.754; the fraction unbound, human plasma amounted to 0.735; the intrinsic clearance, human liver microsomes is ≤ 4.74 mL/min/kg.

For `Cc1cc(C)c(-n2cccn2)c(-c2cn(C[C@@H]3CCCO3)nn2)c1`, the MDR1-MDCK efflux ratio is 1.18; the intrinsic clearance, human liver microsomes was 68 mL/min/kg; the intrinsic clearance, rat liver microsomes worked out at 507 mL/min/kg; the aqueous solubility is 26.4 µg/mL (≈ 81.7 µM).

Consider `Cn1c2cc(S(C)=O)sc2c2cnn(Cc3cccc(N)c3)c(=O)c21` (centres undefined), for which the intrinsic clearance, human liver microsomes was determined as 4.92 mL/min/kg and the intrinsic clearance, rat liver microsomes amounted to 49.6 mL/min/kg.

Turning to `N#Cc1ccc(C(=O)Nn2cnnc2)cc1`, the intrinsic clearance, human liver microsomes was ≤ 4.74 mL/min/kg; the intrinsic clearance, rat liver microsomes is ≤ 10.7 mL/min/kg; the aqueous solubility came to 18 µg/mL (≈ 84.3 µM).

On to `CC(=O)N1CCC(c2ccccn2)CC1`, for which the MDR1-MDCK efflux ratio came to 0.791; the intrinsic clearance, human liver microsomes is ≤ 4.74 mL/min/kg; the intrinsic clearance, rat liver microsomes is ≤ 10.7 mL/min/kg; the aqueous solubility stood at 48.3 µg/mL (≈ 237 µM).

As for `Cc1cn(CCN2CCN(c3ccccc3-c3cc(C#N)cc(C(=O)NCCCN4CCCC4)c3)CC2)c2ccccc12`, the MDR1-MDCK efflux ratio worked out at 0.338; the intrinsic clearance, human liver microsomes came out at 120 mL/min/kg; the intrinsic clearance, rat liver microsomes was determined as 190 mL/min/kg; the aqueous solubility came to 31.7 µg/mL (≈ 55.2 µM).
